Test results taken from patent US20060073189A1, “Chewing gums, lozenges, candies, tablets, liquids, and sprays for efficient delivery of medications and dietary supplements” (priority 2000, published 2006).

Assay: pKa and ionisation of active ingredients
Assay type: physicochemical
Conditions: at a pH of 8.3

- ionized: 50%
Compound: CN(C)CCOC(c1ccccc1)c1ccccc1 [diphenhydramine]
